{"source": "patent US20070282007A1", "about": "“TREATMENT OF PAIN DISORDERS WITH trans 4-(3,4-DICHLOROPHENYL)-1,2,3,4-TETRAHYDRO-1-NAPHTHALENAMINE AND ITS FORMAMIDE” (SEPRACOR INC., priority 2006, published 2007)", "key": {"D1": {"biological_target": "D1 (Homo sapiens, UniProt P21728)", "sequence (P21728 whole entry)": "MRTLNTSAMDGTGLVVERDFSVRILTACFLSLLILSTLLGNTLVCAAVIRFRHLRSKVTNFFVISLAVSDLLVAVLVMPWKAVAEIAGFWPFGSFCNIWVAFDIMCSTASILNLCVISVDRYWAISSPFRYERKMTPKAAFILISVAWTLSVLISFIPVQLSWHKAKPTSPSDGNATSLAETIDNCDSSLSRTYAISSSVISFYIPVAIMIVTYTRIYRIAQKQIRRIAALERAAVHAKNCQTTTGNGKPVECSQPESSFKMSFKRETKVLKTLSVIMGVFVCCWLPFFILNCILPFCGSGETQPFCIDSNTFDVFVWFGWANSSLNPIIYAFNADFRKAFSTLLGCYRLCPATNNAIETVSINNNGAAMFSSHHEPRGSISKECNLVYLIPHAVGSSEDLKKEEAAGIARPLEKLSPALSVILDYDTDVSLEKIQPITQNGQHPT", "experiment": "In vitro radioligand binding assay, D1"}, "M2": {"biological_target": "M2 (Homo sapiens, UniProt P08172)", "sequence (P08172 whole entry)": "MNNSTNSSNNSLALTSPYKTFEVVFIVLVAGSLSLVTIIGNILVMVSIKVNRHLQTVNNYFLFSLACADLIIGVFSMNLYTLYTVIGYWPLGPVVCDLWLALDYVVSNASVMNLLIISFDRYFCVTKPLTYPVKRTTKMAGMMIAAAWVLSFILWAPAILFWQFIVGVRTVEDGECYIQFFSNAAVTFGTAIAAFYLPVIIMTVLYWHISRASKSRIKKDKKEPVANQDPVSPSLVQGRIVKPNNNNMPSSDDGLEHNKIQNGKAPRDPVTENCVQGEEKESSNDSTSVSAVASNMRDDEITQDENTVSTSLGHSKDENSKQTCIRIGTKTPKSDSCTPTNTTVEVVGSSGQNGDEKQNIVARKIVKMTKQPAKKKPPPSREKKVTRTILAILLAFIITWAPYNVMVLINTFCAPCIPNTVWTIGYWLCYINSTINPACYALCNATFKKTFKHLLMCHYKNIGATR", "experiment": "In vitro radioligand binding assay, M2"}, "M5": {"biological_target": "T1, M5 (Homo sapiens, UniProt P08912)", "T1 sequence (P08912 1-532)": "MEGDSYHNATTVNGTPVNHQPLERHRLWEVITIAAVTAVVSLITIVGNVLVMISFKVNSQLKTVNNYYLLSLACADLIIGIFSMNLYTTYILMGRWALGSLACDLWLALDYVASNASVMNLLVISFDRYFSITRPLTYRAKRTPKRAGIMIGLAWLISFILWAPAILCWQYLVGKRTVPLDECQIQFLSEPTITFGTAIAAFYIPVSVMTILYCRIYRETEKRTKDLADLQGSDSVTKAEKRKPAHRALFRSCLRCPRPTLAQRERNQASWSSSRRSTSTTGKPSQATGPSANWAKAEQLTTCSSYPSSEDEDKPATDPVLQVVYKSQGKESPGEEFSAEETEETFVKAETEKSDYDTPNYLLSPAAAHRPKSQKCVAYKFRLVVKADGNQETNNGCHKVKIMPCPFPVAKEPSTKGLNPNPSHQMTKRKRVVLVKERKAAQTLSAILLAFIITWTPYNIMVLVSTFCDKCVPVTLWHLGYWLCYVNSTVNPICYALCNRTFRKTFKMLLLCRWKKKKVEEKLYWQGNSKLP", "experiment": "In vitro radioligand binding assay, M5", "conditions": "read-out: Ki, M5"}, "5-HT1A": {"biological_target": "T2, 5-HT1A (Homo sapiens, UniProt P08908)", "T2 sequence (P08908 1-422)": "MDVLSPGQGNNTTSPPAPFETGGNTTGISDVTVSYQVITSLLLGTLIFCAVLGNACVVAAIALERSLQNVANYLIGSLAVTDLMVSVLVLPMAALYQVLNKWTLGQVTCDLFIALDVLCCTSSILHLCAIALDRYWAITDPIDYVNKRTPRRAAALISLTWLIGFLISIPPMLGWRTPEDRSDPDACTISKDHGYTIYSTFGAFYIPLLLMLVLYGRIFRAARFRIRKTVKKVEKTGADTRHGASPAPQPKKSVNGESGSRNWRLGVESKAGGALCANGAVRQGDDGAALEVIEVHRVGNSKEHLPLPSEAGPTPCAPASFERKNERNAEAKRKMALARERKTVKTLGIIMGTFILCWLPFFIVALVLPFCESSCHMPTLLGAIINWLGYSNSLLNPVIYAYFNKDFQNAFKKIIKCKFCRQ", "experiment": "In vitro radioligand binding assay, 5-HT1A"}, "5-HT1B": {"biological_target": "5-HT1B (Homo sapiens, UniProt P28222)", "sequence (P28222 whole entry, species assumed)": "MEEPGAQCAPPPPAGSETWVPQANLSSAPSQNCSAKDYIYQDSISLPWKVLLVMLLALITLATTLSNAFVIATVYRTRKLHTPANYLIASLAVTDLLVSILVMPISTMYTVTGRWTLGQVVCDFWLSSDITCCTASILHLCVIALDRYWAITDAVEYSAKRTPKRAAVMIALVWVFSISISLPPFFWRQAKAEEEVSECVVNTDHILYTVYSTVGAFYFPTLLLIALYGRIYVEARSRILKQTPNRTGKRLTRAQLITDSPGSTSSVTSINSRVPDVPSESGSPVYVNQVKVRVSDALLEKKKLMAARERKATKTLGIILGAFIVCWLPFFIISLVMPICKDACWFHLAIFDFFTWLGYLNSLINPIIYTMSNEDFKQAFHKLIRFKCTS", "experiment": "In vitro radioligand binding assay, 5-HT1B"}, "5-HT2C": {"biological_target": "5-HT2C (Homo sapiens, UniProt P28335)", "sequence (P28335 33-458, species assumed)": "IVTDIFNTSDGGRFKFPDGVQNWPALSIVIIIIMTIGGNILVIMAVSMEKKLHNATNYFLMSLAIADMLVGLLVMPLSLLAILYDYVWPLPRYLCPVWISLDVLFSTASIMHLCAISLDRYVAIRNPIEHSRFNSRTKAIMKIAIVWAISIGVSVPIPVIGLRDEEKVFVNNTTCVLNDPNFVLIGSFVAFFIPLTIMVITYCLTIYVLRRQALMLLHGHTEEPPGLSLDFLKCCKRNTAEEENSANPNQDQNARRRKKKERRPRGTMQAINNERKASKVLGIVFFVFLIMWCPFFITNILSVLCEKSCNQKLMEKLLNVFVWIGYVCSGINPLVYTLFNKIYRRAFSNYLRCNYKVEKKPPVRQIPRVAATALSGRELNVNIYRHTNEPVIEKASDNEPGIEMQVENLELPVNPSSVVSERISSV", "experiment": "In vitro radioligand binding assay, 5-HT2C"}, "Long-Evans derived rats [1]": {"system": "Long-Evans derived rats", "experiment": "Porsolt forced swim test", "assay_type": "in vivo, rat", "conditions": "for Mean Immobility Time (% of Total) ± SEM, Day 2 Study: 3 administrations", "procedure": "Performance in the Porsolt forced swim test was evaluated for sertraline and Compound P following protocols outlined in Porsolt R. D., et al., Arch. Int. Pharmacodyn., 229: 327 ([…]).\nThe Porsolt forced swim test is a model of “behavioral despair”, which has been used as an in vivo model for assessing potential antidepressant-like activity. Both test articles were dissolved in physiological saline (vehicle) and administered intraperitoneally. […] Long-Evans derived rats were used."}, "Long-Evans derived rats [2]": {"system": "Long-Evans derived rats", "experiment": "Spontaneous locomotor activity study", "assay_type": "in vivo, rat", "conditions": "mean ± SEM", "procedure": "The effects on locomotor activity were studied in Long-Evans derived rats following protocol outlined in Dews P., Br. J. Pharmacol., 8: 46 (1953).\nThis effect was still evident 2 hours following drug administration. On the basis of these studies, CNS effects and long duration of action may be anticipated at sufficient clinical doses."}, "hERG channel": {"biological_target": "hERG channel (Homo sapiens, UniProt Q12809)", "sequence (Q12809 whole entry)": "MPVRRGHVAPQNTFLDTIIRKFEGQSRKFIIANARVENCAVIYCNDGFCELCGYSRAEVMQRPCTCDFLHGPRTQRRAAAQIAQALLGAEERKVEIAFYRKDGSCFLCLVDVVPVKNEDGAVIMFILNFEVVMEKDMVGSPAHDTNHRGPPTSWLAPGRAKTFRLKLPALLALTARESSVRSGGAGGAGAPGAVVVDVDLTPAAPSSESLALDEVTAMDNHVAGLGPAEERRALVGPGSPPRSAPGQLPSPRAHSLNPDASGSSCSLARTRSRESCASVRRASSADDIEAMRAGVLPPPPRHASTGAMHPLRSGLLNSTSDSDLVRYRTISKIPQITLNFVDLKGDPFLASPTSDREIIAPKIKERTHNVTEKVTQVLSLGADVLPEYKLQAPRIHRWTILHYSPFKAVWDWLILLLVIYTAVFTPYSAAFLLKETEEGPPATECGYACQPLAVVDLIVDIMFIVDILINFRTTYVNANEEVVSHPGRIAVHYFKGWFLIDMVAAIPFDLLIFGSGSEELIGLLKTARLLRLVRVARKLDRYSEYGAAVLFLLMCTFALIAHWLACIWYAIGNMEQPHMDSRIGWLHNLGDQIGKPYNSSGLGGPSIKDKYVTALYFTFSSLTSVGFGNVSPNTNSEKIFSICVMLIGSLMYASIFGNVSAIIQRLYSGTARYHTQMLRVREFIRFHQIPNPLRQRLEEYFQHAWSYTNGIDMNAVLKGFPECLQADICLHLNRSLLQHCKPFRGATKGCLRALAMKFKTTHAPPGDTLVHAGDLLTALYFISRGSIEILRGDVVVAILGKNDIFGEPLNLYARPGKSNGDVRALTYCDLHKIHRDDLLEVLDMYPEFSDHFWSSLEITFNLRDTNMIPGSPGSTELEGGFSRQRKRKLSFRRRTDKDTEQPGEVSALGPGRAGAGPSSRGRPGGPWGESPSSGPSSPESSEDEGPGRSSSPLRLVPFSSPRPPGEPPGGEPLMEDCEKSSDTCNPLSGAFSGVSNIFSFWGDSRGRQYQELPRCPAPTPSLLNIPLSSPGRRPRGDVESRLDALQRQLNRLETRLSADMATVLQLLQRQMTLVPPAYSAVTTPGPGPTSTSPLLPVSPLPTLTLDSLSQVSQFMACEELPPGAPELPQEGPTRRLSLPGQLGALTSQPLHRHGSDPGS", "experiment": "hERG channel current in stably transfected HEK293 cells", "procedure": "Studies were conducted to determine effects on IKr, the rapidly activating delayed rectifier cardiac potassium current in the human heart. […] In this assay system, HERG channel current serves as a surrogate for IKr."}, "Beagle dogs": {"system": "Beagle dogs", "experiment": "Cardiovascular safety study in conscious telemetered dogs", "assay_type": "in vivo", "conditions": "single oral doses 0.5, 1.5 and 5 mg/kg", "procedure": "There were four animals/compound and each animal within the treatment group was exposed to the three doses (plus a empty capsule control), in a dose ramp-up manner with a minimum of 72 hours between doses."}}}
{"compound": "CN[C@H]1CC[C@@H](c2ccc(Cl)c(Cl)c2)c2ccccc21", "note": "[Sertraline, (1S,4S)-cis 4-(3,4-dichlorophenyl)-1,2,3,4-tetrahydro-N-methyl-1-napthalenamine, reference compound]", "values": [{"measurement": "Ki", "setting": "D1", "value": 1.6, "unit": "µM"}, {"measurement": "Ki", "setting": "M2", "value": 3.7, "unit": "µM"}, {"measurement": "Ki", "setting": "M5", "value": 2, "unit": "µM"}, {"measurement": "Ki", "setting": "5-HT1A", "value": 2.4, "unit": "µM"}, {"measurement": "Ki", "setting": "5-HT1B", "value": 8.5, "unit": "µM"}, {"measurement": "Ki", "setting": "5-HT2C", "value": 5.6, "unit": "µM"}, {"measurement": "Mean Immobility Time (% of Total) ± SEM, Day 2 Study", "setting": "Long-Evans derived rats [1]; 2.5 mg/kg i.p.", "value": "86 ± 3 % of Total"}, {"measurement": "Mean Immobility Time (% of Total) ± SEM, Day 4 Study", "setting": "Long-Evans derived rats [1]; 2.5 mg/kg i.p., 7 administrations", "value": "78 ± 3 % of Total"}, {"measurement": "Mean Immobility Time (% of Total) ± SEM, Day 2 Study", "setting": "Long-Evans derived rats [1]; 5.0 mg/kg i.p.", "value": "77 ± 2 % of Total"}, {"measurement": "Mean Immobility Time (% of Total) ± SEM, Day 4 Study", "setting": "Long-Evans derived rats [1]; 5.0 mg/kg i.p., 7 administrations", "value": "64 ± 2 % of Total"}, {"measurement": "Mean Immobility Time (% of Total) ± SEM, Day 2 Study", "setting": "Long-Evans derived rats [1]; 10.0 mg/kg i.p.", "value": "72 ± 3 % of Total"}, {"measurement": "Mean Immobility Time (% of Total), Day 4 Study", "setting": "Long-Evans derived rats [1]; 10.0 mg/kg i.p., 7 administrations, error is std dev (N = 2)", "value": "70 ± 4 % of Total"}, {"measurement": "Total Activity Counts, 71–80 Minutes", "setting": "Long-Evans derived rats [2]; 2.5 mg/kg single i.p. dose", "value": "34 ± 9"}, {"measurement": "Total Activity Counts, 91–100 Minutes", "setting": "Long-Evans derived rats [2]; 2.5 mg/kg single i.p. dose", "value": "25 ± 9"}, {"measurement": "Total Activity Counts, 111–120 Minutes", "setting": "Long-Evans derived rats [2]; 2.5 mg/kg single i.p. dose", "value": "30 ± 10"}, {"measurement": "Total Activity Counts, Total 1st Hour", "setting": "Long-Evans derived rats [2]; 2.5 mg/kg single i.p. dose", "value": "559 ± 57^2"}, {"measurement": "Total Activity Counts, Total 2nd Hour", "setting": "Long-Evans derived rats [2]; 2.5 mg/kg single i.p. dose", "value": "211 ± 60"}, {"measurement": "Total Activity Counts, 71–80 Minutes", "setting": "Long-Evans derived rats [2]; 5.0 mg/kg single i.p. dose", "value": "32 ± 11"}, {"measurement": "Total Activity Counts, 91–100 Minutes", "setting": "Long-Evans derived rats [2]; 5.0 mg/kg single i.p. dose", "value": "14 ± 9"}, {"measurement": "Total Activity Counts, 111–120 Minutes", "setting": "Long-Evans derived rats [2]; 5.0 mg/kg single i.p. dose", "value": "16 ± 11"}, {"measurement": "Total Activity Counts, Total 1st Hour", "setting": "Long-Evans derived rats [2]; 5.0 mg/kg single i.p. dose", "value": "327 ± 55"}, {"measurement": "Total Activity Counts, Total 2nd Hour", "setting": "Long-Evans derived rats [2]; 5.0 mg/kg single i.p. dose", "value": "95 ± 41"}, {"measurement": "IC50", "setting": "hERG channel", "value": 1.1, "unit": "µM"}, {"measurement": "effect on heart rate, blood pressure or ECG parameters (including QTc)", "setting": "Beagle dogs", "value": "no effect"}]}
